Results as given in patent EP0059645A1, “Method and kit for identification of beta-lactamases” (NATIONAL RESEARCH DEVELOPMENT CORPORATION, priority 1981, dated 1982).
Marks after values point to notes of the source that are not given here.

What was measured:
[1] = target: SHV-1 (Escherichia coli, UniProt P0AD63); experiment: Competitive assay with nitrocefin (RSAI); format: biochemical, E. coli 2008E; set-up: the beta-lactamase has to be extracted from the cells for the purpose of the present invention; made in house; host or cells: E. coli 2008E (crude cell extract)
[2] = target: T1, OXA-1 (Escherichia coli, UniProt P13661); experiment: Competitive assay with nitrocefin (RSAI); format: biochemical, E. coli 1527E; set-up: the beta-lactamase has to be extracted from the cells for the purpose of the present invention; made in house; host or cells: E. coli 1527E according to the earlier reading (crude cell extract)
[3] = target: T2, PSE-4 (Pseudomonas aeruginosa, UniProt P16897); experiment: 6-well visual test with nitrocefin; conditions: 3 minutes, room temperature
[4] = target: PSE-1 (Pseudomonas aeruginosa, UniProt Q03170); experiment: 6-well visual test with nitrocefin; conditions: 3 minutes, room temperature
[5] = target: T3, OXA-3 (Pseudomonas aeruginosa, UniProt Q51429); experiment: 6-well visual test with nitrocefin; conditions: 3 minutes, room temperature
[6] = target: T3, OXA-3; experiment: Competitive assay with nitrocefin (RSAI); format: biochemical, E. coli R57B; set-up: Normally, therefore, the beta-lactamase has to be extracted from the cells for the purpose of the present invention; endogenous in cells
[7] = test system: K10317; experiment: Competitive assay with nitrocefin (RSAI); format: biochemical, K.aerog. 10317
[8] = target: T4, OXA-2 (Escherichia coli, UniProt P0A1V9); experiment: Competitive assay with nitrocefin (RSAI); format: biochemical, E. coli R46; set-up: the beta-lactamase has to be extracted from the cells for the purpose of the present invention; made in house; host or cells: E. coli carrying R46 according to the earlier reading (crude cell extract)
[9] = test system: PSE-3; experiment: 6-well visual test with nitrocefin; conditions: 3 minutes, room temperature
[10] = target: TEM-2 (Escherichia coli, UniProt P62593, Q37K); experiment: Competitive assay with nitrocefin (RSAI); format: biochemical, E. coli 1725E
[11] = target: T4, OXA-2; experiment: 6-well visual test with nitrocefin; conditions: 3 minutes, room temperature
[12] = target: T2, PSE-4; experiment: Competitive assay with nitrocefin (RSAI); format: biochemical, Ps.aerug. 1559E; set-up: Normally, therefore, the beta-lactamase has to be extracted from the cells for the purpose of the present invention; endogenous in cells
[13] = target: Ps +AMP (Chromosomal) (Pseudomonas aeruginosa, UniProt P24735); experiment: 6-well visual test with nitrocefin; conditions: 3 minutes, room temperature
[14] = target: T5, PSE-2 (Pseudomonas aeruginosa, UniProt P14489); experiment: 6-well visual test with nitrocefin; conditions: 3 minutes, room temperature
[15] = target: Chromosomal, hyper-induced beta-lactamase enzyme (Escherichia coli, UniProt P00811); experiment: Competitive assay with nitrocefin (RSAI); format: biochemical, E. coli SNU35; set-up: Normally, therefore, the beta-lactamase has to be extracted from the cells for the purpose of the present invention; endogenous in cells; host or cells: E. coli SNU 35 (artificially produced strain)
[16] = target: T6, Chromosomal, induced beta-lactamase enzyme (Pseudomonas aeruginosa, UniProt P24735); experiment: Competitive assay with nitrocefin (RSAI); format: biochemical, Ps.aerug. 1937E + ampicillin
T6 construct: Normally, therefore, the beta-lactamase has to be extracted from the cells for the purpose of the present invention; endogenous in cells; host or cells: Pseudomonas aeruginosa 1937E grown with ampicillin

[17] = target: T5, PSE-2; experiment: Competitive assay with nitrocefin (RSAI); format: biochemical, Ps.aerug. 1973E; set-up: Normally, therefore, the beta-lactamase has to be extracted from the cells for the purpose of the present invention; endogenous in cells
[18] = target: TEM-2 beta-lactamase (Escherichia coli, UniProt P62593, Q37K); format: biochemical, E. coli C9 RP4; conditions: from kinetics of nitrocefin cleavage
[19] = target: TEM-1 (Escherichia coli, UniProt P62593); experiment: 6-well visual test with nitrocefin; conditions: 3 minutes, room temperature
[20] = target: E. cloacae (Enterobacter cloacae, UniProt P05364); experiment: 6-well visual test with nitrocefin; conditions: 3 minutes, room temperature
[21] = target: T1, OXA-1; experiment: 6-well visual test with nitrocefin; conditions: 3 minutes, room temperature
[22] = test system: HMS-1; experiment: Competitive assay with nitrocefin (RSAI); format: biochemical, E. coli 1946
[23] = well A: Cefoxitin 20:1 to nitrocefin
[24] = well E: Cefoxitin 200:1 to nitrocefin

CO[C@@]1(NC(=O)Cc2cccs2)C(=O)N2C(C(=O)O)=C(COC(N)=O)CS[C@@H]21 [Cefoxi-tin, cefoxitin]
RSAI [1]: 600 | RSAI [2]: 20 | Score in 6-well visual test [3, 23]: + | Score in 6-well visual test [3, 24]: - | Score in 6-well visual test [4, 23]: ++ | Score in 6-well visual test [4, 24]: - | Score in 6-well visual test [5, 23]: - | Score in 6-well visual test [5, 24]: - | RSAI [6]: 0.004 | RSAI [7]: 350* | RSAI [8]: 0.2 | Score in 6-well visual test [9, 23]: + | Score in 6-well visual test [9, 24]: - | RSAI [10]: 60* | Score in 6-well visual test [11, 23]: - | Score in 6-well visual test [11, 24]: - | RSAI [12]: 27 | Score in 6-well visual test [13, 23]: - | Score in 6-well visual test [13, 24]: - | Score in 6-well visual test [14, 23]: + | Score in 6-well visual test [14, 24]: - | RSAI [15]: 0.0008 | RSAI [16]: 0.003 | RSAI [17]: 24 | nature of the binding to the enzyme [18]: irreversible binding | Score in 6-well visual test [19, 23]: ++ | Score in 6-well visual test [19, 24]: - | Score in 6-well visual test [20, 23]: - | Score in 6-well visual test [20, 24]: - | Score in 6-well visual test [21, 23]: ++ | Score in 6-well visual test [21, 24]: - | RSAI [22]: 60
